# Several values for one entry are separate records, joined by “and”; a condition that tells them apart may be missing. Equal entries are not always repeated. Where two headings read alike, the source gives them in different places.
# Legend:
# sGC = biological target: T1, sGC (Homo sapiens, UniProt Q02108+Q02153); assay: sGC whole cell assay (HEK-293, cGMP production); type: cell-based
# T1 construct: HEK-293 cells endogenously expressing sGC were treated with olinciguat; host or cells: HEK-293
# T1 sequence (Q02153 1-619): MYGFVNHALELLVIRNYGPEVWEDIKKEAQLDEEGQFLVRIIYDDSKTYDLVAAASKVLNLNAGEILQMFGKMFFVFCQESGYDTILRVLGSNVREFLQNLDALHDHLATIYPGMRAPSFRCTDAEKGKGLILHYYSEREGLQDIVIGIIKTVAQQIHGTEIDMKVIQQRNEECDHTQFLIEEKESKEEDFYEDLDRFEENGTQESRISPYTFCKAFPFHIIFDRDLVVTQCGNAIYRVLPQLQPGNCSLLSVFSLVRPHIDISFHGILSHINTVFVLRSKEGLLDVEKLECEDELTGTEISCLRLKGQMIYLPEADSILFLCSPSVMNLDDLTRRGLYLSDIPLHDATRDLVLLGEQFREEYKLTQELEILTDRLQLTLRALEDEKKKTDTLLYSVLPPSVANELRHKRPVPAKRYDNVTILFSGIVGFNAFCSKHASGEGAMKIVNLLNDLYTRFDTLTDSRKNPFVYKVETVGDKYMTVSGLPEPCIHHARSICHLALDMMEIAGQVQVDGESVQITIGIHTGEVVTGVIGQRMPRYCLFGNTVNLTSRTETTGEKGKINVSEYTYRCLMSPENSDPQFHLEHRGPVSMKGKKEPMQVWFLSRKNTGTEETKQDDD
# T1 sequence (Q02108 1-690): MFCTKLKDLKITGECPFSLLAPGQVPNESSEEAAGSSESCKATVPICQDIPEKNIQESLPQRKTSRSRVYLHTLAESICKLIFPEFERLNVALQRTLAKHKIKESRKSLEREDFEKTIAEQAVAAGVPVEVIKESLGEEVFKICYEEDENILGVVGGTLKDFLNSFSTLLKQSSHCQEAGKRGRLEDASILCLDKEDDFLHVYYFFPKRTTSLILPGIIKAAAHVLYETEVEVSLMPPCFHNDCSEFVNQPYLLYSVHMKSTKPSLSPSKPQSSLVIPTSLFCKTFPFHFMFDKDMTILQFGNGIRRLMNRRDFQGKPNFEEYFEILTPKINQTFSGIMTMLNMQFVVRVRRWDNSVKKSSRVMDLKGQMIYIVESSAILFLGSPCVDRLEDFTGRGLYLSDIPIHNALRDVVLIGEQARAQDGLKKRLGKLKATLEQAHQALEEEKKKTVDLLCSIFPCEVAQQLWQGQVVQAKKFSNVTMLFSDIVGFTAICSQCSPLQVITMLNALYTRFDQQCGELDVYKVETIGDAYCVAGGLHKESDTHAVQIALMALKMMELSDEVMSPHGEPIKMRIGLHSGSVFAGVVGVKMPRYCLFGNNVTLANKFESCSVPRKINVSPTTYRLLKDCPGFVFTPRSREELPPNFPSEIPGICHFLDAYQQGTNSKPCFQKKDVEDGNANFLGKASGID
# Description: The human embryonic kidney (HEK)-293 whole cell assay was performed as described ([Tobin et al., 2018]). Briefly, HEK-293 cells (ATCC, Manassas, VA, #CRL-1573) were maintained in Dulbecco's modified Eagle's medium (DMEM) containing serum and antibiotics. Assays were performed in 384-well plates at 37°C by preincubating with 0.5 mM 3-isobutyl-1-methylxanthine (IBMX) in Hanks' Balanced Salt Solution (HBSS) containing calcium and magnesium for 15 min, then adding olinciguat with or without the NO donor diethylenetriamine NONOate (DETA), followed by a 20-min incubation. Cells were lysed with ice-cold 10% acetic acid then centrifuged, and cGMP levels in supernatants were determined by reverse-phase liquid chromatography with tandem mass spectrometry (LC-MS/MS). Concentration-response data were fit using a four-parameter fit (log(agonist) vs response – variable slope) using GraphPad Prism v.7.
# normotensive Wistar rats = assay: Arterial hemodynamics by telemetry in normotensive Wistar rats; type: in vivo, rat
# Description: The Dataquest A.R.T.™ acquisition and analysis system (Data Sciences International [DSI], St. Paul, MN) was employed to monitor and analyze hemodynamic data from conscious, freely moving rats surgically implanted with a telemetry pressure transmitter (PA-C40). Telemetry transmitter implantation was performed on rats under sterile conditions. Rats were anesthetized with isoflurane and body temperature was maintained with a heating pad during surgery. A laparotomy was performed to expose the abdominal aorta. The catheter tip of the telemetry transmitter was inserted into the abdominal aorta and secured with a 5-0 silk suture (Ethicon, Inc., Somerville, NJ). The abdominal incision was closed with uninterrupted suture (4-0 silk, Ethicon, Inc., Somerville, NJ) and the telemetry transmitter was placed in the abdominal cavity and secured to the abdominal wall. Approximately 100 µl of 0.25% marcaine was applied directly to the closed abdominal wall, and the skin was then closed with suture (4-0 Vicryl® absorbable, Ethicon, Inc., Somerville, NJ). Buprenorphine (0.05 mg/kg/day, subcutaneous [s.c.]) was administered immediately after the surgery for postoperative pain relief. After recovery from anesthesia, rats were returned to their home cages, placed on DSI receivers, and allowed a 5- to 14-day recovery period. Arterial hemodynamics were measured continuously and recorded throughout the study. For acute studies, analysis was based on hourly averages, for chronic studies, analysis was based on daily or weekly averages.
# Spontaneously hypertensive rats (SHRs) (n=6, male, 230–250 g, 14 weeks of age) and Wistar rats (n=6, male, 230–250 g, 12 weeks of age) were implanted with telemetry transmitters as described above. Olinciguat was formulated as a suspension in a vehicle containing 0.5% methylcellulose and 0.2% Tween. Rats were p.o. dosed with a dosing volume of 5 ml/kg. […] Using plasma from tail vein, olinciguat plasma concentrations were determined at 1, 6, and 24 h post-dose on day 4 and reported as the mean from Wistar (n=3) and SHR (n=3). Hemodynamics were recorded hourly during a 24-h baseline period and over the first 3 days of dosing.
# Maximum change from baseline of mean arterial pressure (MAP) was calculated using the 24-h pre-first dose average subtracted from the lowest MAP value recorded within 2 h following dosing. The 1-h post-dose change from baseline heart rate (HR) was calculated using the 3-h pre-first dose average subtracted from the 1-h post-dose average.
# In the hemodynamic study in Wistar and SHR, hourly MAP data were analyzed using a repeated measures two-way ANOVA, with time and treatment group as independent variables. Significance at each timepoint was determined as compared to the vehicle control using a Dunnett's post-hoc test.
smiles,measurement,setting,value
"NC(=O)[C@](O)(CNc1nc(-c2cc(-c3ccon3)n(Cc3ccccc3F)n2)ncc1F)C(F)(F)F [olinciguat, (R)-3,3,3-trifluoro-2-(((5-fluoro-2-(1-(2-fluorobenzyl)-5-(isoxazol-3-yl)-1H-pyrazol-3-yl)pyrimidin-4-yl)amino)methyl)-2-hydroxypropanamide]",EC50,"sGC; HEK-293 cells endogenously expressing sGC, in the presence of 10 µM DETA, geometric mean of 14 experiments, 95% CI 42.7 to 105 nM, read-out: EC50, cGMP production",73.8 nM
same,EC50,"sGC; Table 2 summary, 10 µM DETA, read-out: Human cellular sGC assay (HEK-293) EC50, olinciguat concentration (range = 95% CI)",42.7 to 105 nM
same,MAP vs vehicle-treated rats,normotensive Wistar rats; 1 mg/kg p.o. QD,not significantly different from vehicle at any time
same,MAP vs vehicle-treated rats,normotensive Wistar rats; 3 mg/kg p.o. QD,lower only on the second and third day of dosing
same,MAP vs vehicle-treated rats,normotensive Wistar rats; 10 mg/kg p.o. QD,lower on all 3 days of dosing
same,maximum absolute change in MAP,"normotensive Wistar rats; 10 mg/kg p.o. QD, day 3, 10 mg/kg",−11 ± 3 mmHg and −11^b mmHg

# Reference: publication PMC7156612, “Olinciguat, an Oral sGC Stimulator, Exhibits Diverse Pharmacology Across Preclinical Models of Cardiovascular, Metabolic, Renal, and Inflammatory Disease” (Frontiers in Pharmacology, 2020)
